Here are results for 13 compounds from ChEMBL document CHEMBL1136000, “Synthesis of a small library of 3-(carboranylalkyl)thymidines and their biological evaluation as substrates for human thymidine kinases 1 and 2” (J Med Chem, 2002).

The target in the first assay is T1, Thymidine kinase, cytosolic (Homo sapiens) (UniProt P04183).
T1 sequence (whole entry): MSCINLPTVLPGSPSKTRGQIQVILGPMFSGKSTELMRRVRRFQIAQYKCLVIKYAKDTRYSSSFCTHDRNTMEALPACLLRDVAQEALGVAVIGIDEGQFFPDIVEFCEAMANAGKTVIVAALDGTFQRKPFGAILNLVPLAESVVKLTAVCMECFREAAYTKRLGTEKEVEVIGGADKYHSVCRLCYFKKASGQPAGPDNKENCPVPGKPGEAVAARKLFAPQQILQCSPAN
Description: Rate of phosphorylation in the presence of 1% DMSO using Phosphoryl transfer assay in recombinant human cytosolic thymidine kinase 1 at 10 uM
Turning to `Cc1cn([C@H]2C[C@H](O)[C@@H](CO)O2)c(=O)n(CCCC2CC2)c1=O`, the Rate of phosphorylation was determined as 0.3.

As for `Cc1cn([C@H]2C[C@H](O)[C@@H](CO)O2)c(=O)n(CCCCCCC2CC2CC(O)CO)c1=O` (some centres undefined), the Rate of phosphorylation was determined as 0.32.

With `Cc1cn([C@H]2C[C@H](O)[C@@H](CO)O2)c(=O)n(CCCCC2CC2)c1=O`, the Rate of phosphorylation came out at 0.13.

The compound `Cc1cn([C@H]2C[C@H](O)[C@@H](CO)O2)c(=O)n(CCCCCCC2CC2)c1=O` had a Rate of phosphorylation of 0.28.

On to `Cc1cn([C@H]2C[C@H](O)[C@@H](CO)O2)c(=O)[nH]c1=O`, for which the Rate of phosphorylation is 1.

With `Cc1cn([C@H]2C[C@H](O)[C@@H](CO)O2)c(=O)n(CCCCCCCC2CC2)c1=O`, the Rate of phosphorylation stood at 0.11.

In turn, `Cc1cn([C@H]2C[C@H](O)[C@@H](CO)O2)c(=O)n(CCCCCC2CC2)c1=O` registered a Rate of phosphorylation of 0.41.

`Cc1cn([C@H]2C[C@H](O)[C@@H](CO)O2)c(=O)n(CCC2CC2)c1=O` yielded a Rate of phosphorylation of 0.39.

As for `Cc1cn([C@H]2C[C@H](O)[C@@H](CO)O2)c(=O)n(CCCCCCCC2CC2CC(O)CO)c1=O` (some centres undefined), the Rate of phosphorylation was determined as 0.13.

Take `Cc1cn([C@H]2C[C@H](O)[C@@H](CO)O2)c(=O)n(CCCCCC2CC2CC(O)CO)c1=O` (some centres undefined): the Rate of phosphorylation stood at 0.41.

For `Cc1cn([C@H]2C[C@H](O)[C@@H](CO)O2)c(=O)n(CCC2CC2CC(O)CO)c1=O` (some centres undefined), the Rate of phosphorylation came out at 0.45.

For `Cc1cn([C@H]2C[C@H](O)[C@@H](CO)O2)c(=O)n(CCCCC2CC2CC(O)CO)c1=O` (some centres undefined), the Rate of phosphorylation amounted to 0.21.

The compound `Cc1cn([C@H]2C[C@H](O)[C@@H](CO)O2)c(=O)n(CCCC2CC2CC(O)CO)c1=O` (some centres undefined) had a Rate of phosphorylation of 0.4.

The next assay deals with Thymidine kinase 2, mitochondrial (Homo sapiens) (UniProt O00142).
Thymidine kinase 2, mitochondrial (Homo sapiens), sequence (O00142 whole entry, looked up): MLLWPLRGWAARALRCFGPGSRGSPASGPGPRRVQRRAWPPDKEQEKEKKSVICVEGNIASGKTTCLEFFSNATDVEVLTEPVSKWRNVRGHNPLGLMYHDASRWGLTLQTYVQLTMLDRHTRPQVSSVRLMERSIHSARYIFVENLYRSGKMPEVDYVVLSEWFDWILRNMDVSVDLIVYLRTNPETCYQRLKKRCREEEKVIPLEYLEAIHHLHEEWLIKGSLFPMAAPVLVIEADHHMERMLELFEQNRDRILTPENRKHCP
`Cc1cn([C@H]2C[C@H](O)[C@@H](CO)O2)c(=O)n(CCCC2CC2)c1=O` returned a Rate of phosphorylation of 0.002.

On to `Cc1cn([C@H]2C[C@H](O)[C@@H](CO)O2)c(=O)n(CCCCCCC2CC2CC(O)CO)c1=O` (some centres undefined), for which the Rate of phosphorylation came out at 0.002.

The compound `Cc1cn([C@H]2C[C@H](O)[C@@H](CO)O2)c(=O)n(CCCCC2CC2)c1=O` registered a Rate of phosphorylation of 0.003.

Regarding `Cc1cn([C@H]2C[C@H](O)[C@@H](CO)O2)c(=O)n(CCCCCCC2CC2)c1=O`, the Rate of phosphorylation is less than 0.001.

Take `Cc1cn([C@H]2C[C@H](O)[C@@H](CO)O2)c(=O)[nH]c1=O`: the Rate of phosphorylation amounted to 1.

`Cc1cn([C@H]2C[C@H](O)[C@@H](CO)O2)c(=O)n(CCCCCCCC2CC2)c1=O`: the Rate of phosphorylation was less than 0.001.

`Cc1cn([C@H]2C[C@H](O)[C@@H](CO)O2)c(=O)n(CCCCCC2CC2)c1=O` registered a Rate of phosphorylation of 0.001.

`Cc1cn([C@H]2C[C@H](O)[C@@H](CO)O2)c(=O)n(CCC2CC2)c1=O` came in with a Rate of phosphorylation of 0.002.

In the case of `Cc1cn([C@H]2C[C@H](O)[C@@H](CO)O2)c(=O)n(CCCCCCCC2CC2CC(O)CO)c1=O` (some centres undefined), the Rate of phosphorylation is less than 0.001.

Compound `Cc1cn([C@H]2C[C@H](O)[C@@H](CO)O2)c(=O)n(CCCCCC2CC2CC(O)CO)c1=O` (some centres undefined) registered a Rate of phosphorylation of 0.002.

Compound `Cc1cn([C@H]2C[C@H](O)[C@@H](CO)O2)c(=O)n(CCC2CC2CC(O)CO)c1=O` (some centres undefined) yielded a Rate of phosphorylation of 0.002.

With `Cc1cn([C@H]2C[C@H](O)[C@@H](CO)O2)c(=O)n(CCCCC2CC2CC(O)CO)c1=O` (some centres undefined), the Rate of phosphorylation was 0.003.

For `Cc1cn([C@H]2C[C@H](O)[C@@H](CO)O2)c(=O)n(CCCC2CC2CC(O)CO)c1=O` (some centres undefined), the Rate of phosphorylation was 0.004.

A further assay deals with T1, Thymidine kinase, cytosolic (Homo sapiens). This is another data set of the same source.
Description: Rate of phosphorylation in the presence of 1% DMSO using Phosphoryl transfer assay in recombinant human cytosolic thymidine kinase 1 at 5 uM
In turn, `Cc1cn([C@H]2C[C@H](O)[C@@H](CO)O2)c(=O)n(CCCC2CC2)c1=O` returned a Rate of phosphorylation of 0.27.

Compound `Cc1cn([C@H]2C[C@H](O)[C@@H](CO)O2)c(=O)n(CCCCCCC2CC2CC(O)CO)c1=O` (some centres undefined) came in with a Rate of phosphorylation of 0.22.

Consider `Cc1cn([C@H]2C[C@H](O)[C@@H](CO)O2)c(=O)n(CCCCC2CC2)c1=O`, for which the Rate of phosphorylation amounted to 0.17.

In turn, `Cc1cn([C@H]2C[C@H](O)[C@@H](CO)O2)c(=O)n(CCCCCCC2CC2)c1=O` returned a Rate of phosphorylation of 0.31.

Compound `Cc1cn([C@H]2C[C@H](O)[C@@H](CO)O2)c(=O)[nH]c1=O` showed a Rate of phosphorylation of 1.

Compound `Cc1cn([C@H]2C[C@H](O)[C@@H](CO)O2)c(=O)n(CCCCCCCC2CC2)c1=O` came in with a Rate of phosphorylation of 0.15.

On to `Cc1cn([C@H]2C[C@H](O)[C@@H](CO)O2)c(=O)n(CCCCCC2CC2)c1=O`, for which the Rate of phosphorylation was determined as 0.57.

On to `Cc1cn([C@H]2C[C@H](O)[C@@H](CO)O2)c(=O)n(CCC2CC2)c1=O`, for which the Rate of phosphorylation stood at 0.42.

Turning to `Cc1cn([C@H]2C[C@H](O)[C@@H](CO)O2)c(=O)n(CCCCCCCC2CC2CC(O)CO)c1=O` (some centres undefined), the Rate of phosphorylation stood at 0.13.

The compound `Cc1cn([C@H]2C[C@H](O)[C@@H](CO)O2)c(=O)n(CCCCCC2CC2CC(O)CO)c1=O` (some centres undefined) registered a Rate of phosphorylation of 0.39.

The compound `Cc1cn([C@H]2C[C@H](O)[C@@H](CO)O2)c(=O)n(CCC2CC2CC(O)CO)c1=O` (some centres undefined) registered a Rate of phosphorylation of 0.49.

As for `Cc1cn([C@H]2C[C@H](O)[C@@H](CO)O2)c(=O)n(CCCCC2CC2CC(O)CO)c1=O` (some centres undefined), the Rate of phosphorylation is 0.21.

Take `Cc1cn([C@H]2C[C@H](O)[C@@H](CO)O2)c(=O)n(CCCC2CC2CC(O)CO)c1=O` (some centres undefined): the Rate of phosphorylation is 0.43.
